Strand notation (5' to 3'): a small letter for the sugar, then the base; units joined by * are phosphorothioate-linked, units joined directly phosphodiester-linked; [ ] holds rarer units or linkages, { } end groups; capitals alone tell only the bases. e = 2'-O-(2-methoxyethyl) (MOE); [5mC] = 5-methylcytosine; d = 2'-deoxy (DNA)
How the values were obtained:
[1] = tested on: BALB/c mice with heart allograft; assay: Murine heart allograft rejection model; format: in vivo, mouse
Experimental: A murine model for evaluating compounds for their ability to inhibit heart allograft rejection has been previously described (Stepkowski et al., J. Immunol., 1994, 153, 5336). This model was used to evaluate the immunosuppressive capacity of antisense oligonucleotides to B7 proteins alone or in combination with antisense oligonucleotides to intercellular adhesion molecule-1 (ICAM-1).
Heart allograft rejection studies and oligonucleotide treatments of BALB/c mice were performed essentially as previously described (Stepkowski et al., J. Immunol., 1994, 153, 5336). Antisense oligonucleotides used included ISIS 11696, ISIS 3082 (targeted to ICAM-1) and ISIS 1082 (a control oligonucleotide targeted to the herpes virus UL-13 gene sequence). Dosages used were 1, 2, 2.5, 5 or 10 mg/kg of individual oligonucleotide (as indicated below); when combinations of oligonucleotides were administered, each oligonucleotide was given at a dosage of 1, 5 or 10 mg/kg (total oligonucleotide dosages of 2, 10 and 20 mg/kg, respectively). The survival times of the transplanted hearts and their hosts were monitored and recorded.

[2] = tested on: murine B7-2 (mB7-2); assay: Murine B7-2 cell surface expression in transfected COS-7 cells by flow cytometry; format: cell-based, mouse; conditions: for % B7-2 EXPRESSION: mouse B7-2 cell surface expression
From the text: (§1) Oligonucleotides (see Table 4) capable of inhibiting expression of murine B7-2 transiently expressed in COS-7 cells were identified in the following manner. A series of phosphorothioate oligonucleotides complementary to murine B7-2 (mB7-2) cDNA were screened for their ability to reduce mB7-2 levels (measured by flow cytometry as in Example 2, except that a conjugated anti-mB7-2 antibody (i.e., anti-mCD86-PE, PharMingen, San Diego, Calif.) in COS-7 cells transfected with an mB7-2 cDNA clone. Anti-mB7-2 antibody may also be obtained from the hybridoma deposited at the ATCC under accession No. HB-253. Oligonucleotides (see Table 2) capable of modulating murine B7-1 expression are isolated in like fashion, except that a conjugated anti-mB7-1 antibody is used in conjunction with COS-7 cells transfected with an mB7-1 cDNA clone.
(§2) B7 antisense oligonucleotides were tested for their effect on cell surface expression of both B7-1 and B7-2. Cell surface expression was measured as described in Example 1. Experiments were done for both human B7 and mouse B7.

[3] = tested on: murine B7-1; assay: Murine B7-1 cell surface expression in transfected COS-7 cells by flow cytometry; format: cell-based; conditions: mouse B7-1 cell surface expression, basal = 100%
From the text: as §1, §2

[4] = tested on: Mouse B7-2 mRNA; assay: Mouse B7-2 mRNA expression, screened as in Example 4; format: cell-based; design: % mRNA INHIBITION: concentration or dose not given beside the values; conditions: for % mRNA INHIBITION: screened as in Example 4; for % mRNA EXPRESSION: screened as in Example 4, basal = 100.0%
Experimental: For ribonuclease protection assays, cells were harvested 18 hours after completion of oligonucleotide treatment using a Totally RNA™ kit (Ambion, Austin, Tex.). The probes for the assay were generated from plasmids pcB7-2 (linearized by digestion with Bgl II) and pTRI-b-actin (Ambion Inc., Austin, Tex.). In vitro transcription of the linearized plasmid from the SP6 promoter was performed in the presence of α-^32P-UTP (800 Ci/mmole) yielding an antisense RNA complementary to the 3′ end of B7-2 (position 1044-1391). The probe was gel-purified after treatment with DNase I to remove DNA template. Ribonuclease protection assays were carried out using an RPA II™ kit (Ambion) according to the manufacturer's directions. Total RNA (5 μg) was hybridized overnight, at 42° C., with 10^5 cpm of the B7-2 probe or a control beta-actin probe. The hybridization reaction was then treated, at 37° C. for 30 minutes, with 0.4 units of RNase A and 2 units of RNase T1. Protected RNA was precipitated, resuspended in 10 μL of gel loading buffer and electrophoresed on a 6% acrylamide gel with 50% w/v urea at 20 W. The gel was then exposed and the lanes quantitated using a PhosphorImager (Molecular Dynamics, Sunnyvale, Calif.) essentially according to the manufacturer's instructions.
Oligonucleotides were screened as described in Example 4.

[5] = tested on: DBA/1LacJ mice with collagen-induced arthritis; assay: Collagen-induced arthritis (CIA) murine model; format: in vivo, mouse; conditions: CIA in DBA/1LacJ mice; for % Incidence: 10 mg/kg intraperitoneally daily from day -3, control 70%; for Peak day (day from onset of maximum swelling for each joint measure) / Severity (total clinical score divided by the total number of mice in the group): 10 mg/kg intraperitoneally daily; for Peak day (day from onset of maximum swelling for each joint measure): control 6.7 ± 2.9; for Severity (total clinical score divided by the total number of mice in the group): limbs graded 0-4, control 3.2 ± 1.1
Experimental: Collagen-induced arthritis (CIA) was used as a murine model for arthritis (Mussener, A., et al., Clin. Exp. Immunol., 1997, 107, 485-493). Female DBA/1LacJ mice (Jackson Laboratories, Bar Harbor, Me.) between the ages of 6 and 8 weeks were used to assess the activity of B7-1 antisense oligonucleotides.
On day 0, the mice were immunized at the base of the tail with 100 μg of bovine type II collagen which is emulsified in Complete Freund's Adjuvant (CFA). On day 7, a second booster dose of collagen was administered by the same route. On day 14, the mice were injected subcutaneously with 100 μg of LPS. Oligonucleotide was administered intraperitoneally daily (10 mg/kg bolus) starting on day −3 (three days before day 0) and continuing for the duration of the study. Oligonucleotide 17456 (SEQ ID NO. 173) is a fully phosphorothioated analog of 18122.
Weights were recorded weekly. Mice were inspected daily for the onset of CIA. Paw widths are rear ankle widths of affected and unaffected joints were measured three times a week using a constant tension caliper. Limbs were clinically evaluated and graded on a scale from 0-4 (with 4 being the highest).

[6] = tested on: Mouse B7-1 mRNA; assay: Mouse B7-1 mRNA expression, screened as in Example 4; format: cell-based; design: % mRNA INHIBITION: concentration or dose not given beside the values; conditions: Table 10
[7] = tested on: murine B7-2 (mB7-2); assay: mB7-2 cell surface expression in LPS-induced IC-21 cells by flow cytometry; format: cell-based, mouse; conditions: FIG. 9; for levels of induced mB7-2 expression: 3 μM; for reduction in the level of induced mB7-2 expression: 10 μM
Experimental: In order to further evaluate the murine B7-2 antisense oligonucleotides, the IC-21 cell line was used. IC-21 monocyte/macrophage cell line expresses both B7-1 and murine B7-2 (mB7-2) constitutively. A 2-fold induction of expression can be achieved by incubating the cells in the presence of lipopolysaccharide (LPS; GIBCO-BRL, Gaithersburg, Md.) (Hathcock et al., Science, 1993, 262, 905).
IC-21 cells (ATCC; accession No. TIB 186) were seeded at 80% confluency in 12-well plates in DMEM media with 10% FCS. The cells were allowed to adhere to the plate overnight. The following day, the medium was removed and the cells were washed with PBS. Then 500 μL of OptiMEM™ (GIBCO-BRL, Gaithersburg, Md.) supplemented with 15 μg/mL of Lipofectin™ (GIBCO-BRL, Gaithersburg, Md.) was added to each well. Oligonucleotides were then added directly to the medium at the indicated concentrations. After incubation for 4 hours, the cells were washed with PBS and incubated overnight in culture medium supplemented with 15 μg/mL of LPS. The following day, cells were harvested by scraping, then analyzed for cell surface expression by flow cytometry.

ISIS 3082: ICAM-1 oligonucleotide, previously described (Stepkowski et al.); SEQ ID NO: 101 (antisense TGCATCCCCCAGGCCACCAT; listed as DNA, chemistry not given here)
mean survival time ([1]; 1 mg/kg/day for 7 days): 11.0 ± 0.0 days | mean survival time ([1]; 2.5 mg/kg/day for 7 days): 12.0 ± 2.7 days | mean survival time ([1]; 5 mg/kg/day for 7 days): 14.1 ± 2.7 days | mean survival time ([1]; 10 mg/kg/day for 7 days): 15.3 ± 5.8 days

18089 (antisense eG*eT*e[5mC]*eA*eA*dA*dG*d[5mC]*dT*d[5mC]*dG*dT*dG*d[5mC]*dG*eG*e[5mC]*e[5mC]*e[5mC]*eA) [compound 18089]
% B7-2 EXPRESSION [2]: 36% | % B7-1 EXPRESSION [3]: 85% | % mRNA INHIBITION [4]: 79.1% | % mRNA EXPRESSION [4]: 20.9% | % Incidence [5]: 44.4% | Peak day (day from onset of maximum swelling for each joint measure) [5]: 6.8 ± 2.2 days | Severity (total clinical score divided by the total number of mice in the group) [5]: 2.3 ± 1.3

11696 (antisense dG*dG*dA*dT*dT*dG*dC*dC*dA*dA*dG*dC*dC*dC*dA*dT*dG*dG*dT*dG) [compound 11696]
% Incidence [5]: 37.5% | Peak day (day from onset of maximum swelling for each joint measure) [5]: 11.6 ± 4.5 days | Severity (total clinical score divided by the total number of mice in the group) [5]: 3.4 ± 1.8

18119 (antisense eG*eT*eT*eA*eA*d[5mC]*dT*d[5mC]*dT*dA*dT*d[5mC]*dT*dT*dG*eT*eG*eT*e[5mC]*eA) [compound 18119]
% B7-2 EXPRESSION [2]: 98% | % B7-1 EXPRESSION [3]: 27% | % mRNA EXPRESSION [6]: 24.0% | % mRNA INHIBITION [6]: 76.0%

18113 (antisense eG*eT*eG*eA*eA*dG*dT*d[5mC]*d[5mC]*dT*d[5mC]*dT*dG*dA*d[5mC]*eA*e[5mC]*eG*eT*eG) [compound 18113]
% B7-2 EXPRESSION [2]: 91% | % B7-1 EXPRESSION [3]: 25% | % mRNA EXPRESSION [6]: 24.6% | % mRNA INHIBITION [6]: 75.4%

18097 (antisense eT*eG*e[5mC]*e[5mC]*eA*dA*dG*d[5mC]*d[5mC]*d[5mC]*dA*dT*dG*dG*dT*eG*e[5mC]*eA*eT*e[5mC]) [compound 18097]
% B7-2 EXPRESSION [2]: 28% | % B7-1 EXPRESSION [3]: 87% | % mRNA INHIBITION [4]: 75.5% | % mRNA EXPRESSION [4]: 24.5%

18110 (antisense eA*eT*eG*eA*eG*dG*dA*dG*dA*dG*dT*dT*dG*dT*dA*eA*e[5mC]*eG*eG*e[5mC]) [compound 18110]
% B7-2 EXPRESSION [2]: 93% | % B7-1 EXPRESSION [3]: 31% | % mRNA EXPRESSION [6]: 21.0% | % mRNA INHIBITION [6]: 79.0% | % Incidence [5]: 55.6% | Peak day (day from onset of maximum swelling for each joint measure) [5]: 2.0 ± 0.8 days | Severity (total clinical score divided by the total number of mice in the group) [5]: 2.0 ± 1.3

GGA-TTG-CCA-AGC-CCA-TGG-TG (GGATTGCCAAGCCCATGGTG; chemistry not given here) [ISIS 11696]
IC50 ([2]; COS-7 cells, FIG. 8): 200 to 300 nM | levels of induced mB7-2 expression [7]: greatly reduced | reduction in the level of induced mB7-2 expression [7]: inhibited mB7-2 expression completely | mean survival time ([1]; 2 mg/kg/day for 7 days): 9.3 ± 0.6 days | mean survival time ([1]; 10 mg/kg/day for 7 days): 9.3 ± 1.3 days

ISIS 1082: control oligonucleotide targeted to the herpes virus UL-13 gene sequence; SEQ ID NO: 102 (125) (antisense GCCGAGGTCCATGTCGTACGC; listed as DNA, chemistry not given here)
mean survival time ([1]; 5 mg/kg/day for 7 days): 7.1 ± 0.7 days | mean survival time ([1]; 10 mg/kg/day for 7 days): 7.0 ± 0.8 days

18114 (antisense e[5mC]*eG*eA*eA*eT*d[5mC]*d[5mC]*dT*dG*d[5mC]*d[5mC]*d[5mC]*d[5mC]*dA*dA*eA*eG*eA*eG*e[5mC]) [compound 18114]
% mRNA EXPRESSION [6]: 25.6% | % mRNA INHIBITION [6]: 74.4%

18116 (antisense eT*eT*eG*eA*eT*dG*dA*dT*dG*dA*d[5mC]*dA*dA*d[5mC]*dG*eA*eT*eG*eA*e[5mC]) [compound 18116]
% mRNA EXPRESSION [6]: 65.6% | % mRNA INHIBITION [6]: 34.4%

CTA-AGT-AGT-GCT-AGC-CGG-GA (antisense CTAAGTAGTGCTAGCCGGGA; listed as DNA, chemistry not given here) [ISIS 11866, scrambled # 11696, reference compound]
inhibition of murine B7-2 cell surface expression ([2]; highest concentration tested (1000 nM)): less than 20% | levels of induced mB7-2 expression [7]: little effect | reduction in the level of induced mB7-2 expression [7]: 40%

Reference: patent US7897582B2, “Oligonucleotide compositions and methods for the modulation of the expression of B7 protein” (Isis Pharmaceuticals, Inc., priority 2003, dated 2011)
